Measured values published in publication PMC6273963, “Design, Synthesis, and Biological Evaluation of Some Novel Pyrrolizine Derivatives as COX Inhibitors with Anti-Inflammatory/Analgesic Activities and Low Ulcerogenic Liability” (Molecules, 2016).
“Also recorded” adds a separate entry of the source.

Experiments:
COX-1 (ovine) = target: T1, COX-1 (ovine) (Ovis aries, UniProt P05979); experiment: COX colorimetric inhibitor screening assay, COX-1
T1 sequence (P05979 25-600): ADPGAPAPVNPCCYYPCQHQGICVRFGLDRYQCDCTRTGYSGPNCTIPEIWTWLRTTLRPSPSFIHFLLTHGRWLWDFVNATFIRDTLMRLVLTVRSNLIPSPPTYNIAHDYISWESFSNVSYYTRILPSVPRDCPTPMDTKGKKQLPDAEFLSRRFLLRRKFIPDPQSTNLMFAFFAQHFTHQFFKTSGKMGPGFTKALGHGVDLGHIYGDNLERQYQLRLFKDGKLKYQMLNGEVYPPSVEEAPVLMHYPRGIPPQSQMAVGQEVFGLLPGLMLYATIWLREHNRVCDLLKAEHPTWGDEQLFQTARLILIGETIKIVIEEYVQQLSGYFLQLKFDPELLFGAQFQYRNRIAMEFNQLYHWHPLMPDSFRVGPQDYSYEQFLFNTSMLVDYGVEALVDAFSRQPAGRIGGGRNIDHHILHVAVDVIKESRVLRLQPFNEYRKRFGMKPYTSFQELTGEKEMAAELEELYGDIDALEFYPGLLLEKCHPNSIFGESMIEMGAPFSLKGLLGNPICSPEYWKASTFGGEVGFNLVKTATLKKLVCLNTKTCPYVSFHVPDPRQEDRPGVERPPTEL

thermal pain (hot plate) = experiment: Hot-plate test (analgesic activity); assay type: in vivo, rat; conditions: IP; for analgesic potency relative to ibuprofen: 0.48 mmol/kg; for analgesic activity (in words): 0.24 and 0.48 mmol/kg, 2 h after injection, compared with ibuprofen
Experimental: A hot-plate was used to induce thermal pain and the cutoff time was fixed to 15 s [30]. […] The analgesic activity of the novel pyrrolizines were carried out using the thermal model (hot-plate test) according to a previous report [30]. An electronically controlled hot-plate (Harvard Apparatus Ltd., Kent, UK) was used and the cut-off time was 15 s and the temperature was adjusted to 52 ± 0.1 °C. Animals were then divided into groups of six animal each. Rats were assigned numbers of 1–6 in each group. The reference drug was given intraperitoneally at a dose of 50 mg/kg (0.24 mmol/kg) and 100 mg/kg (0.48 mmol/kg). […] The response latencies (time elapsed until licking paw or jumping) were measured and expressed as mean ± SEM. The percent changes (analgesic effects) of the tested compounds were calculated as percent change in latencies divided by baseline time (100 × (T1 − T0)/T0) and results were expressed as % change ± SEM, Figure 6.

[1] = target: T2, COX-2 (human recombinant) (Homo sapiens, UniProt P35354); experiment: COX colorimetric inhibitor screening assay, COX-2; conditions: for SI (COX-2 selectivity index = IC50 of COX-1/IC50 of COX-2): in vitro
T2 sequence (P35354 18-604): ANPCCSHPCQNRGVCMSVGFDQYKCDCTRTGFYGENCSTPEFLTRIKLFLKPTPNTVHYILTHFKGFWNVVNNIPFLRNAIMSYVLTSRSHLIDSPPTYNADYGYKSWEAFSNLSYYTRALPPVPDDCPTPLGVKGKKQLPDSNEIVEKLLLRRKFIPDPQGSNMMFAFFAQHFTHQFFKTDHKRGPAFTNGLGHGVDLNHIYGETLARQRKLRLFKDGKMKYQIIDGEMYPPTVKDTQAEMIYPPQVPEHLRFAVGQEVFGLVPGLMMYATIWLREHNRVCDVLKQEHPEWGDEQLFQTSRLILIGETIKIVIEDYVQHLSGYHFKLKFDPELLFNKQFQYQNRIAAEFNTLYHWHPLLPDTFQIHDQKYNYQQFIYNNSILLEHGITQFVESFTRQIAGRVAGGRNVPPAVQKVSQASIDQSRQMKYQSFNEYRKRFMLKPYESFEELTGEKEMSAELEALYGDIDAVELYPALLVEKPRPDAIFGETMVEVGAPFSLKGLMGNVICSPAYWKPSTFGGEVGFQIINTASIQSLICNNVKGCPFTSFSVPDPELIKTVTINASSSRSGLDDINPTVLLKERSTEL

rat stomach mucosa = experiment: Acute ulcerogenicity study; assay type: in vivo; conditions: oral, 0.48 mmol/kg; for Ulcerogenicity UI (ulcer index): three days, n = 6
Experimental: GIT toxicity is the main serious side effect of the NSAIDs. In this work, the ulcerogenicity of the novel compounds 12–19 was evaluated according to the previous reported methodology. The tested compounds 12–19 and ibuprofen were given orally in a dose of 0.48 mmol/kg.
(§1) Adult albino rats of both sex weighing 100–140 g were used in evaluation of the anti-inflammatory, analgesic, ulcerogenic activity in addition to the histopathological study of the new pyrrolizines 12–19. Animal ethical use clearance was obtained from the Ethical Committee at the College of Pharmacy, Umm Al-Qura University. Normalization of the animals with laboratory conditions were achieved by keeping them in laboratory one week before starting the experiments. Standard rat pellet diet was used for feeding animals and water ad libitum.
GIT toxicity was evaluated according to the previous report. Adult albino rats of both sexes were divided into groups of six animals each. The test compounds were dissolved first in 0.5 mL DMSO, then CMC (1%) was added dropwise with trituration. Rats were fasted 20 h before drug administration. The eight tested compounds and ibuprofen were given orally in a dose of 0.24 and 0.48 mmol/kg/day suspended in 1% CMC, while the control group received vehicle (1% CMC containing few drops of DMSO). Rats were then fasted for 2 h, allowed to feed for 2 h then fasted again for another 20 h. Other doses were given in the second and third days. In the fourth day, Pentobarbital (60 mg/kg IP) was used to induce deep anesthesia then rats were sacrificed. The stomachs were removed, opened along with the greater curvature and rinsed with 0.9% saline. The number of mucosal damages (red spots) were counted using magnifying lens and their severity (ulcerogenic severity) was graded in a scale from 0 to 3 as follows: (0) normal (no injury), (0.5) red coloration, (1) spot ulcer, (1.5) hemorrhagic streaks, (2) ulcer > 3 mm, (3) ulcer > 5 mm. The ulcer index was calculated using the following equation ulcer index (UI) = UN + US + UP/10, where UN is the average number pf ulcers per animal, US is the average of severity score, UP is the percent of animal with ulcer.

[2] = tested on: carrageenan-induced rat paw edema; experiment: Carrageenan-induced rat paw edema model (anti-inflammatory activity); assay type: in vivo; design: key to Potency (anti-inflammatory activity of tested compound/ibuprofen): ratio of % inhibition of edema (compound / ibuprofen); ibuprofen = 1.00; conditions: for % Inhibition in Edema Thickness 1 h: 1 h after induction of inflammation; for % Inhibition in Edema Thickness 1 h / % Inhibition in Edema Thickness 2 h / % Inhibition in Edema Thickness 3 h: IP, dose molecularly equivalent to ibuprofen, n = 6; for % Inhibition in Edema Thickness 2 h: 2 h after induction of inflammation; for % Inhibition in Edema Thickness 3 h: 3 h after induction of inflammation; for Potency (anti-inflammatory activity of tested compound/ibuprofen): after 3 h of induction of inflammation, relative to ibuprofen
Excerpt: The carrageenan-induced rat paw edema model was utilized to investigate the anti-inflammatory activity of compounds 12–19 relative to ibuprofen as a reference drug.
as §1
The anti-inflammatory activity of the novel compounds 12–19 was evaluated in comparison with ibuprofen as a standard, using a rat paw edema model as described by Winter et al.. Adult albino rats of both sexes (100–140 gm) were used. Rats were uniformly hydrated by giving 3 mL water for each rat through gastric inoculation to reduce variability to edema response. Animals were then divided into groups of six animal each. The control group was given saline solution containing few drops of sodium carboxymethyl cellulose (CMC) 1% and DMSO. Ibuprofen (50 and 100 mg/kg) was given as standard drug. The new compounds 12–19 in a dose molecularly equivalent to ibuprofen were dissolved in 0.5 mL DMSO and CMC 1% was added dropwise with continuous triturating to complete the specified volume. The tested compounds were administered intraperitoneally (IP). The induction of inflammation was achieved by subcutaneous (SC) injection of carrageenan-sodium gel, into the sub-plantar region of the right hind paw. The dorsoventral diameter (thickness) of the right and left hind paw of each rat was measured using digital calipers with accuracy of 0.01 mm (Cole-Parmer, Vernon Hills, IL, USA). The thickness of edema was measured 1, 2 and 3 h after induction of inflammation. The left hind paw diameter served as a control for the degree of inflammation in the right hind paw. The changes in the edema thickness were expressed as mean ± SEM, Figure 4. The anti-inflammatory activity was calculated as % inhibition of inflammation = (1 − Lt/Lc) × 100. Where Lt is the mean increase in paw thickness in rats treated with the tested compounds and Lc is the mean increase in paw thickness in control group. Data were collected, and statistically analyzed by One way ANOVA followed by student-Newman-Keuls multiple comparison test, Table 2.

[3] = tested on: stomach mucosa, submucosa and mucosal glands; experiment: Histopathological study of rat stomach; assay type: in vivo; conditions: rats of the ulcerogenicity test, haematoxylin and eosin stain
Excerpt: The stomachs of the rats used in ulcerogenicity test were subjected to a histopathological study to visualize the deep effects of ibuprofen and tested compounds on the stomach mucosa, submucosa and mucosal glands. The specimens were stained with haematoxylin and eosin stain [33].
The study investigated the deep effect of the tested compounds on the mucosa, submucosa and mucosal gland. The stomachs which were opened longitudinally along the greater curvature were used and the specimens were taken from the stomachs of all cases. These specimens were fixed in 10% formalin solution for 72 h. The samples were processed and embedded in paraffin wax. Microtomy was done and 5 microns tissue sections were obtained and mounted on clean glass slides.

| Compound | IC50 (COX-1 (ovine)) [µM] | analgesic potency relative to ibuprofen (thermal pain (hot plate)) [times] | analgesic activity (in words) (thermal pain (hot plate)) | IC50 [1] [µM] | SI (COX-2 selectivity index = IC50 of COX-1/IC50 of COX-2) [1] | Ulcerogenicity UI (ulcer index) (rat stomach mucosa) | Ulcerogenicity % Protection (% inhibition of ulcer relative to ibuprofen) (rat stomach mucosa) [%] | % Inhibition in Edema Thickness 1 h [2] [%] | % Inhibition in Edema Thickness 2 h [2] [%] | % Inhibition in Edema Thickness 3 h [2] [%] | Potency (anti-inflammatory activity of tested compound/ibuprofen) [2] | histopathological findings in stomach transverse sections [3] | anti-inflammatory activity (in words) ([2]; compared with ibuprofen and parent compound 12) |
| --- | --- | --- | --- | --- | --- | --- | --- | --- | --- | --- | --- | --- | --- |
| N#Cc1c(NC(=O)c2ccccc2)c(C(=O)Nc2ccc(Br)cc2)n2c1CCC2 [Compound 16, 6-Benzamido-N-(4-bromophenyl)-7-cyano-2,3-dihydro-1H-pyrrolizine-5-carboxamide] | 2.45 | 1.03 to 1.27 | higher analgesic activity than ibuprofen; also recorded: good activity comparable to that of ibuprofen | 0.85 | 2.89 | 2.26 | 83.69 | 29.95 | 37.80 | 50.58 | 1.24 | normal mucosal glands with no histopathological effects | – |
| N#Cc1c(N)c(C(=O)Nc2ccc(Br)cc2)n2c1CCC2 [Compound 12, 6-Amino-N-(4-bromophenyl)-7-cyano-2,3-dihydro-1H-pyrrolizine-5-carboxamide] | 4.64 | 1.03 to 1.27 | higher analgesic activity than ibuprofen | 1.27 | 3.64 | 4.66 | 66.38 | 21.20 | 37.40 | 44.79 | 1.10 | variable degrees of necrosis with some leukocytes infiltration | higher anti-inflammatory activity than that of ibuprofen |
| N#Cc1c2c(n3c1CCC3)C(=O)N(c1ccc(Br)cc1)CC(=O)N2 [Compound 15, 4-(4-Bromophenyl)-2,5-dioxo-1,2,3,4,5,7,8,9-octahydro-[1,4]diazepino[5,6-b]pyrrolizine-10-carbonitrile] | 3.37 | – | lower than that of ibuprofen | 1.06 | – | – | – | 10.60 | 16.54 | 24.91 | 0.61 | little histopathological effects such as congested blood vessels and variable degrees of leukocytes infiltration | – |
| CC(C)Cc1ccc(C(C)C(=O)O)cc1 (stereo not shown) [Ibuprofen, reference compound] | – | – | – | – | – | 13.86 | 0 | 25.81 | 33.46 | 40.82 | 1.00 | severe damage represented by leukocytes infiltration and necrosis in the mucosa layer with hypertrophy in mucosal glands | – |
